Read-outs that look alike come from different tables or passages of the source.
Legend:
[1] = HEK293T cytotoxicity counterscreen, luminescent ATP viability assay; conditions: human
Protocol: (§1) Compounds were screened at 5 μM with metronidazole (40 μM) as an inhibitor control and dimethyl sulfoxide (DMSO) as a neutral control. […] These primary hits were immediately assayed for reconfirmation and mammalian cytotoxicity against HEK293T cells in an 8-point dose-response format.
(§2) Experimental details for the assays were described previously ([50]). […] Assays were performed as previously reported ([51]).
(§3) Relative luminescence unit (RLU) values were analyzed in Genedata Screener (v13.0-Standard). RLU values were normalized to neutral controls minus inhibitors (DMSO-treated wells minus metronidazole-treated wells). For single-point primary assay plates, an additional run-wise median correction was applied to reduce screen artifacts, whereas no corrections were applied to triplicate dose-response plates. For the mammalian cytotoxicity assays, RLU values were uploaded into Genedata Screener, and the data were normalized to those for DMSO-treated wells minus puromycin-treated wells.

[2] = test system: Giardia lamblia GS clone H7; experiment: G. lamblia GS clone H7 trophozoite growth, ATP-based bioluminescence assay (BacTiter-Glo), 1,536-well; assay type: cell-based; conditions: for Selectivity index (CC50/EC50): HEK293T CC50 / G. lamblia GS clone H7 EC50
Protocol: as §1
The primary screen was conducted at 5 μM. […] All source plates were 384-well acoustic, transfer-compatible plates with compounds prediluted in DMSO at either 2 mM or 10 mM. […] Primary screening was done with a single replicate, whereas dose-response testing was carried out in triplicate.
To prevent attachment to the bottle and tubing of the dispenser cassette, the bottle containing the culture was kept on ice throughout the dispensing process. […] The bags were heat sealed and the anaerobic generator was activated according to the manufacturer’s instructions. […] Luminescence was read on a ViewLux uHTS microplate imager (PerkinElmer) with medium-sensitivity luminescence at 30 s of exposure.
as §3

[3] = test system: G. lamblia CBG99 (assemblage A); experiment: G. lamblia CBG99 luciferase strain cell growth inhibition assay; assay type: cell-based, Giardia lamblia; conditions: for inhibition of G. lamblia growth / inhibition at 5 µM: G. lamblia CBG99, compound at 5 μM; for inhibition at 5 µM / EC50: Giardia duodenalis; for EC50: assemblage A, read-out: EC50 against G. lamblia strain CBG99
Protocol: Subsequent assays, including the mouse model of infection, used the G. lamblia click beetle green (CBG99) strain, which was grown and assayed as previously described ([11], [49]).
In vitro reconfirmation and expanded tests against EGFR-TKIs using the G. lamblia CBG99 strain were performed as previously described ([11]). […] The PK studies were performed in groups of 3 mice per compound. […] All animal experiments were approved by the Institutional Animal Care and Use Committees at the University of Washington.

HEK293T cells = experiment: in vitro
Protocol: as §1, §2, §3

[4] = test system: metronidazole-resistant 713-M3 strain; experiment: Metronidazole-resistant G. lamblia 713-M3 cell growth inhibition assay; assay type: cell-based; conditions: Giardia duodenalis, read-out: EC50 against G. lamblia strain 713-M3
[5] = test system: G. lamblia WB6 (assemblage A); experiment: G. lamblia WB6 cell growth inhibition assay; assay type: cell-based; conditions: Giardia duodenalis, read-out: EC50 against G. lamblia strain WB6
[6] = Giardia duodenalis, 48 h, 8-point dose response, triplicate, read-out: 48-h Giardia GS clone H7 EC50
[7] = 48 h, 8-point dose response, triplicate, read-out: 48-h Giardia GS clone H7 EC50
[8] = Giardia duodenalis, Table 2, assemblage B, read-out: EC50 against G. lamblia strain GS clone 7

SMILES	CC50 at 72 h ([1]; HEK293T cells)	EC50 [2, 6]	Selectivity index (CC50/EC50) [2]	other results
O=[N+]([O-])c1ccc(-c2nc3ccccc3[nH]2)o1 [2-(5-Nitro-2-furyl) benzimidazole]	> 25 µM	5.8 ± 0.13 µM	>4	
N#CC(C#N)=Cc1ccc(O)c(O)c1 [AG-18]				inhibition of G. lamblia growth [3]: ≤ 50%
N#C/C(=C\c1ccc(O)c(O)c1)C(=O)NCc1ccccc1 [AG-490]				inhibition of G. lamblia growth [3]: ≤ 50%
COc1cc2ncnc(Nc3cccc(Cl)c3)c2cc1OC [AG-1478]				inhibition of G. lamblia growth [3]: ≤ 50%
CNC(=O)CN1CCC(Oc2cc3c(Nc4cccc(Cl)c4F)ncnc3cc2OC)CC1 [AZD8931]				inhibition at 5 µM [3]: ≤ 50%
Cn1c([N+](=O)[O-])cnc1C(O)c1cc(C(C)(C)C)ccc1O (stereo not shown) [Abunidazole]				CC50 (HEK293T cells): > 25 µM; EC50 [2, 7]: 1.08 ± 0.02 µM
CC(=O)Nc1ncc([N+](=O)[O-])s1 [Aminitrozole]	> 25 µM	7.11 ± 0.28 µM	>3	
Cn1c([N+](=O)[O-])cnc1/C=C/c1ccnc(N)n1 [Azanidazole]	> 25 µM	0.72 ± 0.06 µM	>35	
Cc1ncc([N+](=O)[O-])n1CCOC(=O)c1ccccc1 [Benzoyl metronidazole]	> 25 µM	2.43 ± 0.23 µM	>10	
CS(=O)(=O)Nc1ccc(C(=O)O[C@@H](Cc2c(Cl)c[n+]([O-])cc2Cl)c2ccc(OC(F)F)c(OCC3CC3)c2)cc1OCC1CC1 [CHF-6001]	> 25 µM	2.03 ± 0.1 µM	>12	
COC(=S)NCCn1c([N+](=O)[O-])cnc1C [Carnidazole]	> 25 µM	3.01 ± 0.06 µM	>8	
CSc1ccc(OCc2ncc([N+](=O)[O-])n2C)cc1 [Fexinidazole]	> 25 µM	6.39 ± 0.16 µM	>4	
Cc1ncc([N+](=O)[O-])n1CCO [Metronidazole]		7.12 ± 0.06 µM	>3	CC50 at 72 h [1]: > 25 µM; EC50 [4]: > 25 µM; EC50 ([5]; assemblage A): 2.33 ± 0.06 µM; EC50 [3]: 2.87 ± 0.34 µM; EC50 [2, 8]: 7.12 ± 0.06 µM
Cn1c([N+](=O)[O-])cnc1/C=N/N1CC(CN2CCOCC2)OC1=O (stereo not shown) [Moxnidazole]	> 25 µM	6.11 ± 0.11 µM	>4	
O=C1NCCN1c1ncc([N+](=O)[O-])s1 [Niridazole]		6.42 ± 0.06 µM	>4	CC50 at 72 h [1]: > 25 µM
CC(=O)Oc1ccccc1C(=O)Nc1ncc([N+](=O)[O-])s1 [Nitazoxanide]	> 25 µM	6.45 ± 0.11 µM	>4	
Cc1ncc([N+](=O)[O-])n1CC(O)CCl (stereo not shown) [Ornidazole]		1.82 ± 0.04 µM	>14	CC50 at 72 h [1]: > 25 µM

SMILES	CC50 at 72 h ([1]; HEK293T cells)	EC50 [2, 6]	Selectivity index (CC50/EC50) [2]	other results
COc1cc2ncnc(Nc3cccc(Br)c3)c2cc1OC.Cl [PD153035-HCl]				inhibition of G. lamblia growth [3]: ≤ 50%
C=CC(=O)Nc1ccc2ncnc(Nc3cccc(Br)c3)c2c1 [PD168393]				inhibition of G. lamblia growth [3]: ≤ 50%
CS(=O)(=O)OCCN(CCBr)c1c(C(=O)NCCOP(=O)(O)O)cc([N+](=O)[O-])cc1[N+](=O)[O-] [PR-104]			>13	CC50 at 72 h [1]: > 25 µM; EC50 ([2]; Giardia duodenalis, 48 h, read-out: 48-h Giardia GS clone H7 EC50): 1.98 ± 0.07 µM
Cc1ncc([N+](=O)[O-])n1CCc1ccncc1 [Panidazole]	> 25 µM	1.85 ± 0.68 µM	>14	
CC(=O)C[C@H]1CCCCN1 [Pelletierine]		20.3 ± 0.07 µM	>1	CC50 [1]: > 25 µM; EC50 [4]: > 25 µM; EC50 [5]: > 25 µM; EC50 [3]: > 25 µM; EC50 [2, 8]: 20.3 ± 0.07 µM
CCOC(=O)/C(=C/c1ncc([N+](=O)[O-])n1C)C(C)=O [Propenidazole]				CC50 (HEK293T cells): 16.9 ± 0.05 µM; EC50 [2, 7]: 2.55 ± 0.04 µM
CCCN(CCC)c1ccc(/N=N/c2ccccc2C(=O)O)cc1 [Propyl red]	> 25 µM	5.78 ± 0.07 µM	>4	
Cn1c([N+](=O)[O-])cnc1N1CCN(S(C)(=O)=O)C1=O [Satranidazole]	> 25 µM	2.49 ± 0.04 µM	>10	
Cc1ncc([N+](=O)[O-])n1CC(C)O (stereo not shown) [Secnidazole]		6.57 ± 0.09 µM	>4	CC50 at 72 h [1]: > 25 µM
CCS(=O)(=O)CCn1c([N+](=O)[O-])cnc1C [Tinidazole]		5.7 ± 0.08 µM	>4	CC50 at 72 h [1]: > 25 µM
CN(C)C/C=C/C(=O)Nc1cc2c(Nc3ccc(F)c(Cl)c3)ncnc2cc1O[C@H]1CCOC1 [afatinib]				inhibition at 5 µM [3]: ≤ 50%
C=CC(=O)Nc1cccc(Oc2nc(Nc3ccc(N4CCN(C)CC4)c(F)c3)nc3[nH]ccc23)c1.O=C(O)/C=C\C(=O)O [avitinib maleate]				inhibition of G. lamblia growth [3]: ≤ 50%
COc1cc2ncnc(Nc3ccc(F)c(Cl)c3)c2cc1NC(=O)/C=C/CN1CCCCC1 [dacomitinib]				inhibition at 5 µM [3]: ≤ 50%
C#Cc1cccc(Nc2ncnc3cc(OCCOC)c(OCCOC)cc23)c1 [erlotinib]				inhibition at 5 µM [3]: ≤ 50%
CS(=O)(=O)CCNCc1ccc(-c2ccc3ncnc(Nc4ccc(OCc5cccc(F)c5)c(Cl)c4)c3c2)o1 [lapatinib ditosylate]				inhibition at 5 µM [3]: ≤ 50%
CCOc1cc2ncc(C#N)c(Nc3ccc(OCc4ccccn4)c(Cl)c3)c2cc1NC(=O)/C=C/CN(C)C [neratinib]				inhibition at 5 µM [3]: ≤ 50%
C=CC(=O)Nc1cccc(Nc2nc(Nc3ccc(N4CCN(C(C)=O)CC4)cc3OC)ncc2C(F)(F)F)c1 [rociletinib]				inhibition at 5 µM [3]: ≤ 50%
